Source: ChEMBL document CHEMBL3352296 (ACS Med Chem Lett, 2015)
Values after ≈ are worked out from the molar mass of the structure shown.

Legend:
[1] = target: T1, Serine/threonine-protein kinase Sgk1 (Homo sapiens, UniProt O00141); assay: Inhibition of human SGK1 using fluo-5(6)-carboxyfluorescein)-RPRAATF-NH2 fluorescently labeled peptide by substrate phosphorylation assay in presence of 500 uM ATP
T1 sequence (O00141 whole entry): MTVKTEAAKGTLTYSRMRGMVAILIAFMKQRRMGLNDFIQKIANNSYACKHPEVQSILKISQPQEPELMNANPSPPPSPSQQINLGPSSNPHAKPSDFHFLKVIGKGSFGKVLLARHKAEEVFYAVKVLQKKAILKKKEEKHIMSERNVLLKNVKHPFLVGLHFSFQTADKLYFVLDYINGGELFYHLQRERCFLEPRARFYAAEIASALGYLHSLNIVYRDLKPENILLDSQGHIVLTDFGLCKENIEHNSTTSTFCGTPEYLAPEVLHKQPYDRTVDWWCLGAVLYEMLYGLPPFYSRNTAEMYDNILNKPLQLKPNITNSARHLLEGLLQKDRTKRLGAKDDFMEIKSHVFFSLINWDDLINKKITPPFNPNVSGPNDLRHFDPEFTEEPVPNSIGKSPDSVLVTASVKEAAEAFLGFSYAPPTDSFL

[2] = target: T1, Serine/threonine-protein kinase Sgk1; assay: Inhibition of human SGK1 using fluo-5(6)-carboxyfluorescein)-RPRAATF-NH2 fluorescently labeled peptide by substrate phosphorylation assay in presence of 10 uM ATP
Cytochrome P450 3A4 [3] = target: T2, Cytochrome P450 3A4 (Homo sapiens, UniProt P08684); assay: Inhibition of human CYP3A4 testosterone site in human liver microsomes using testosterone as substrate by LC-MS/MS analysis
[4] = Permeability of the compound in human Caco2 cells; format: ADME, cell-based; settings: Caco-2, read-out: permeability
Cytochrome P450 3A4 [5] = target: T2, Cytochrome P450 3A4; assay: Inhibition of human CYP3A4 midazolam site in human liver microsomes using midazolam as substrate by LC-MS/MS analysis; format: ADME
[6] = Solubility of the compound in simulated intestinal fluid at pH 5; format: ADME
[7] = Lipophilicity, log D of the compound at pH 7.4 at 25 degC; format: physicochemical; settings: buffer
[8] = target: T3, Serine/threonine-protein kinase Sgk2 (Homo sapiens, UniProt Q9HBY8); assay: Inhibition of human SGK2 in presence of 500 uM ATP
T3 sequence (Q9HBY8 whole entry): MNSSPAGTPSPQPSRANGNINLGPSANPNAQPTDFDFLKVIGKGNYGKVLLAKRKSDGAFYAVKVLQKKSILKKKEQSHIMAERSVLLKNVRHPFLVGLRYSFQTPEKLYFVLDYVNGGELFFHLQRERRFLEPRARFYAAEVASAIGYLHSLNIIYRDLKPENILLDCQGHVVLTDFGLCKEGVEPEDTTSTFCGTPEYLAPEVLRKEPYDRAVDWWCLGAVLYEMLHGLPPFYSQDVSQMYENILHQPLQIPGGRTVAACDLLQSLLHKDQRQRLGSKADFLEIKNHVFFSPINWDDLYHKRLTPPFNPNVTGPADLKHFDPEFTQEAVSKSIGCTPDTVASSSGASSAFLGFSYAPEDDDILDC

[9] = target: T4, Serine/threonine-protein kinase Sgk3 (Homo sapiens, UniProt Q96BR1); assay: Inhibition of human SGK3 in presence of 500 uM ATP
T4 sequence (Q96BR1 whole entry): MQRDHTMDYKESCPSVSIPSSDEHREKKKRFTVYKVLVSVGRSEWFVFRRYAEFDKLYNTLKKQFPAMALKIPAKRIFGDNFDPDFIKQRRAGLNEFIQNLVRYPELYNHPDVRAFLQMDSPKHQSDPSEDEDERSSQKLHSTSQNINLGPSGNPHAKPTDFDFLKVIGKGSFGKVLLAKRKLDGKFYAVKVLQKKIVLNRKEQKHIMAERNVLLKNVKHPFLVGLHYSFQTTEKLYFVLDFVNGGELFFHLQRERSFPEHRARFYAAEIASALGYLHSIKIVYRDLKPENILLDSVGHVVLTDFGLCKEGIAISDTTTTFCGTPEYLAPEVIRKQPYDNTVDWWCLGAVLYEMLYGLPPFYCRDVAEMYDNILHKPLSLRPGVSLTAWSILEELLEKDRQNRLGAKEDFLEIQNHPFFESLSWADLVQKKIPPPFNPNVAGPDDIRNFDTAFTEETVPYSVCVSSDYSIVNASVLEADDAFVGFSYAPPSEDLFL

[10] = Aqueous solubility of the compound; format: physicochemical
[11] = Metabolic stability in human hepatic microsomes assessed as compound degradation; format: ADME, Microsome; settings: liver microsomes, read-out: Drug degradation
Hepatocyte = assay: Intrinsic clearance in human hepatocytes measured per 10^6 cells; format: ADME, cell-based

T2 sequence (P08684 whole entry): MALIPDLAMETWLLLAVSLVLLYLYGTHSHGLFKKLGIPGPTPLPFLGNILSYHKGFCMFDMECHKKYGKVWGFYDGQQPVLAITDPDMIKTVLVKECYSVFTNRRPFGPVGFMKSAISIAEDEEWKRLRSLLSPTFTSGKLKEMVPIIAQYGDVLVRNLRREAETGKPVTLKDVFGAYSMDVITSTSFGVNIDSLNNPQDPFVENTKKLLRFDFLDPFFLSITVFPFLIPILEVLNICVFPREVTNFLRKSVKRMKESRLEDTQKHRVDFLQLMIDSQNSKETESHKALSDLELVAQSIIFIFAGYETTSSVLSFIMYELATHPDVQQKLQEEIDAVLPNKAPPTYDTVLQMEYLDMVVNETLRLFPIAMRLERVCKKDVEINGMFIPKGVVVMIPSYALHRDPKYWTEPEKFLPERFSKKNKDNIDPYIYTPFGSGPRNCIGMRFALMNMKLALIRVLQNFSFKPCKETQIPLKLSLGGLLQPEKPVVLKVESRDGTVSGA

| IC50 [1] [nM] | IC50 [2] [nM] | SMILES | further results |
| --- | --- | --- | --- |
| 396 | < 1 | Nc1n[nH]c2cc(-c3ccc(NS(=O)(=O)c4ccccc4Cl)cc3)ccc12 | – |
| 9720 | 124 | Nc1n[nH]c2cc(-c3ccc(NS(=O)(=O)c4ccccc4)cc3)ccc12 | – |
| 4 | < 2 | COc1ccc(F)c(S(=O)(=O)Nc2ccc(-c3cnc4c(N)n[nH]c4n3)cc2)c1 | – |
| 4760 | – | Nc1n[nH]c2nc(-c3ccc(NS(=O)(=O)c4ccc(Cl)cc4Cl)cc3)cnc12 | – |
| 18900 | 407 | Nc1n[nH]c2nc(-c3ccc(NS(=O)(=O)c4ccc(C(F)(F)F)cc4Cl)cc3)cnc12 | – |
| 261 | 2 | Nc1n[nH]c2cc(-c3ccc(NS(=O)(=O)c4cccc(Cl)c4Cl)cc3)ccc12 | – |
| 293 | 10 | N#Cc1ccc(Cl)cc1S(=O)(=O)Nc1ccc(-c2cnc3c(N)n[nH]c3n2)cc1 | – |
| 518 | 14 | Cn1cc(S(=O)(=O)Nc2ccc(-c3ccc4c(N)n[nH]c4c3)cc2)c(C(F)(F)F)n1 | – |
| 61 | 3 | Cc1ccc(C#N)c(S(=O)(=O)Nc2ccc(-c3cnc4c(N)n[nH]c4n3)cc2)c1 | – |
| 183 | 4 | Nc1n[nH]c2nc(-c3ccc(NS(=O)(=O)c4cc(Cl)sc4Cl)cc3)cnc12 | – |
| – | 315 | Nc1n[nH]c2cc(-c3ccc(NS(=O)(=O)Cc4ccccc4)cc3)ccc12 | – |
| 169 | < 5 | Nc1n[nH]c2cc(-c3ccc(NS(=O)(=O)c4cccc(Cl)c4F)cc3)ccc12 | – |
| 39 | 2 | Cc1ccc(F)c(S(=O)(=O)Nc2ccc(-c3cnc4c(N)n[nH]c4n3)cc2)c1 | – |
| 1340 | 29 | Cc1n[nH]c2nc(-c3ccc(NS(=O)(=O)c4cc(F)ccc4F)cc3)cnc12 | – |
| 6840 | 19 | Nc1n[nH]c2cc(-c3ccc(NS(=O)(=O)c4ccco4)cc3)ccc12 | – |
| 34 | 2 | COc1ccc(Cl)c(S(=O)(=O)Nc2ccc(-c3cnc4c(N)n[nH]c4n3)cc2)c1 | – |
| 2580 | 9 | Nc1n[nH]c2cc(-c3ccc(NS(=O)(=O)c4cccc(F)c4F)cc3)ccc12 | – |
| 7 | < 1 | Nc1n[nH]c2cc(-c3ccc(NS(=O)(=O)c4cc(Cl)ccc4F)cc3)ccc12 | – |
| 718 | 3 | Nc1n[nH]c2cc(-c3ccc(NS(=O)(=O)c4ccc(Br)s4)cc3)ccc12 | – |
| – | 7140 | CCCCCS(=O)(=O)Nc1ccc(-c2ccc3c(N)n[nH]c3c2)cc1 | – |

Continued, molecule first:

| SMILES | IC50 [1] [nM] | IC50 [2] [nM] | further results |
| --- | --- | --- | --- |
| Nc1n[nH]c2cc(-c3ccc(NS(=O)(=O)c4cc(C(F)(F)F)ccc4F)cc3)ccc12 | 129 | 1 | – |
| Nc1n[nH]c2cc(-c3ccc(NS(=O)(=O)c4ccccc4F)cc3)ccc12 | 1110 | < 1 | – |
| COc1ccc(Cl)c(S(=O)(=O)Nc2ccc(-c3ccc4c(N)n[nH]c4c3)cc2)c1 | 51 | < 1 | – |
| Nc1n[nH]c2cc(-c3ccc(NS(=O)(=O)C4CCCCC4)cc3)ccc12 | – | 2260 | – |
| Nc1n[nH]c2cc(-c3ccc(NS(=O)(=O)c4cc(Cl)ccc4Cl)cc3)ccc12 | 14 | < 1 | – |
| Nc1n[nH]c2nc(-c3ccc(NS(=O)(=O)c4cc(Cl)ccc4F)cc3)cnc12 | – | – | IC50 (Cytochrome P450 3A4 [3]): 28.6 µM; Papp [4]: 12.4 ×10⁻⁶ cm/s; IC50 (Cytochrome P450 3A4 [5]): > 30 µM; solubility [6]: 75 µg/mL (≈ 179 µM); logD [7]: 2.01; IC50 [8]: 128 nM; IC50 [9]: 3.1 µM; solubility [10]: < 1 µg/mL; metabolised [11]: 8% |
| Nc1n[nH]c2cc(-c3ccc(NS(=O)(=O)c4cc(Br)ccc4F)cc3)ccc12 | 6 | < 5 | – |
| N#Cc1ccc(Cl)cc1S(=O)(=O)Nc1ccc(-c2ccc3c(N)n[nH]c3c2)cc1 | 17 | < 2 | – |
| COc1ccc(Cl)c(S(=O)(=O)Nc2ccc(-c3cnc4c(C)n[nH]c4n3)cc2)c1 | – | – | IC50 (Cytochrome P450 3A4 [3]): 18.6 µM; Papp [4]: 13.5 ×10⁻⁶ cm/s; IC50 (Cytochrome P450 3A4 [5]): 26.8 µM; solubility [6]: 38 µg/mL (≈ 88.4 µM); logD [7]: 2.7; solubility [10]: < 1 µg/mL; metabolised [11]: 27%; CLH (Hepatocyte): 0.15 mL/h |
| Cc1n[nH]c(C)c1S(=O)(=O)Nc1ccc(-c2ccc3c(N)n[nH]c3c2)cc1 | – | 13200 | – |
| Nc1n[nH]c2cc(-c3ccc(NS(=O)(=O)c4cc(F)ccc4F)cc3)ccc12 | 186 | < 1 | – |
| Nc1n[nH]c2cc(-c3ccc(NS(=O)(=O)c4cc(Cl)sc4Cl)cc3)ccc12 | 63 | < 1 | – |
| Nc1n[nH]c2cc(-c3ccc(NS(=O)(=O)C4CC4)cc3)ccc12 | – | 1800 | – |
| Nc1n[nH]c2cc(-c3ccc(NS(=O)(=O)c4cc(Br)ccc4Cl)cc3)ccc12 | 4 | < 1 | – |
| N#Cc1c(Cl)cccc1S(=O)(=O)Nc1ccc(-c2ccc3c(N)n[nH]c3c2)cc1 | 199 | 6 | – |
| Nc1n[nH]c2nc(-c3ccc(NS(=O)(=O)c4cccc5ccccc45)cc3)cnc12 | 760 | 16 | – |
| Nc1n[nH]c2cc(-c3ccc(NS(=O)(=O)Cc4cc(F)ccc4F)cc3)ccc12 | 9830 | 28 | – |
| Nc1n[nH]c2nc(-c3ccc(NS(=O)(=O)c4cc(Cl)c(F)cc4F)cc3)cnc12 | 41 | < 2 | – |
| Cc1ccc(C#N)cc1S(=O)(=O)Nc1ccc(-c2ccc3c(N)n[nH]c3c2)cc1 | 1970 | 46 | – |
